Measured values: publication PMC5603512, “Discovery, Semisynthesis, Antiparasitic and Cytotoxic Evaluation of 14-Membered Resorcylic Acid Lactones and Their Derivatives” (Scientific Reports, 2017)
pIC50: −log10 of the molar value. Read-outs that look alike come from different tables or passages of the source.

Tests used:
[1] = Cytotoxicity MTT assay, K562; conditions: human
Experimental: (§1) All of the compounds were also evaluated for their cytotoxic properties against six human cancer cell lines (lung carcinoma epithelian (A549), colon carcinoma (HCT-116), pancreatic carcinoma (BXPC-3), breast cancer (MCF-7), cervical epithelium (HeLa), and erythroleukemic (K562)) and a human umbilical vein endothelial cell (HUVEC) line (Table 2).
(§2) The cytotoxicity against HCT-116, BXPC-3, HeLa, MCF-7, A-549, and HUVEC cell lines was evaluated using the SRB method. The cytotoxicity against K562 and Vero cell lines was evaluated using the MTT method. Adriamycin was used as a positive control. All cells were cultivated in T-75 flasks containing 10% Fetal Bovine Serum (FBS), Dulbeco’s Modified Eagle Medium (DMEM) with 2 mM L-glutamine, and 1% penicillin-streptomycin at 37 °C in a humidified atmosphere with 5% CO2. For SRB assay, cells in their log phase of growth were seeded into 96 well micro plates (4 × 10^4 cells per well) and followed by treating with test samples at 10 μM or DMSO. After incubation at 37 °C for 72 h, the cells were fixed with the cold 20% (w/v) TCA for 2 h and stained with Sulforhodamine B (SRB) dye for 0.5 h. The protein-bound dye is dissolved in Tris base solution for OD determination at 540 nm on an ELISA Plate Reader. For MTT assay, cells (5 × 10^3 cells per well) were plated in 96 well micro plates. After cell attachment overnight, new medium containing test compounds or DMSO was added. The plate was incubated for 48 h at 37 °C and incubated with 3-(4,5-dimethylthiazol-2-yl)-2,5-diphenyltetrazolium bromide (MTT) for additional 2–4 hours. The assay plate was then read at 490 nm on an ELISA Plate Reader. The data were obtained from experiments carried out in triplicate.

[2] = test system: Trypanosoma cruzi; test: Antitrypanosomal assay (beta-galactosidase reporter, intracellular amastigotes in Vero cells); type: cell-based; conditions: Tulahuen clone C4, intracellular amastigotes in Vero cells, 120 h; note: key: I: Inactive
Experimental: Briefly, the expression of the reporter gene for beta-galactosidase (β-Gal) in the Tulahuen clone C4 of T. cruzi is assessed by colorimetry at 570 nm, which correlates with the parasite growth. Assays were performed on the intracellular amastigote form of the parasite infecting African green monkey kidney (Vero) cells, incubated for 120 h at 37 °C with 5% CO2.

[3] = Cytotoxicity SRB assay, HCT-116; conditions: human
Experimental: as §1, §2

[4] = Cytotoxicity SRB assay, HeLa; conditions: human
Experimental: as §1, §2

[5] = Cytotoxicity SRB assay, A-549; conditions: human
Experimental: as §1, §2

[6] = Cytotoxicity SRB assay, BXPC-3; conditions: human
Experimental: as §1, §2

[7] = test system: Leishmania donovani; test: Antileishmanial assay (PicoGreen); type: cell-based; conditions: read-out: Leishmania donovani IC50
Experimental: The anti-leishmania activity was evaluated following the protocol described by Calderon et al.[39], using the fluorescent DNA intercalator PicoGreen (Invitrogen, USA). The species responsible for visceral leishmaniasis, L. donovani, was used for the assays.

[8] = test system: Plasmodium falciparum; test: Antiplasmodial assay (PicoGreen growth inhibition in infected human erythrocytes); type: cell-based
Experimental: Activity against the causative agent of malaria was performed by culturing human erythrocytes and infecting them with P. falciparum, as described by Trager and Jensen[36]. Briefly, the W2 (Chloroquine resistant) and 3D7 (Chloroquine sensitive) strains of P. falciparum were cultured in RPMI 1640 medium (Sigma-Aldrich, USA) supplemented with 10% human serum (from O+ blood) at a hematocrit of 2% erythrocytes (O+) at 37 °C in a gas mixture of 5% CO2, 5% O2, and 90% N2. Parasites were synchronized by a temperature cycling technique as described by Almanza et al.[37]

[9] = Cytotoxicity SRB assay, MCF-7; conditions: human
Experimental: as §1, §2

[10] = Toxicity against Vero cells (MTT); type: cell-based, African green monkey; conditions: African green monkey, MTT, 48 h
Experimental: It should be emphasized that toxicity is a major concern of drug discovery and development. The above active compounds were evaluated for in vitro toxicity against a mammalian kidney cell line (Vero). The selectivity index (SI) was used as the evaluation parameter of drug potential of the test samples by comparing the toxicity on the Vero cell line (CC50) and the selective inhibitory effect on P. falciparum, L. donovani or T. cruzi (IC50) calculated here as CC50/IC50.
Adriamycin was used as a positive control.

[11] = Cytotoxicity SRB assay, HUVEC; conditions: human
Experimental: as §1, §2

[12] = 3D7, Erythrocyte, read-out: Plasmodium falciparum IC50
[13] = BXPC-3 pancreatic carcinoma cells
[14] = Erythrocyte, in vitro, W2 and 3D7 strains cultured, strain of the values not stated, read-out: Plasmodium falciparum IC50
[15] = Vero cells (mammalian kidney cell line)

SMILES	IC50 at 48 h [1]	Trypanosoma cruzi IC50 [2]	IC50 at 72 h [3]	IC50 at 72 h [4]	IC50 at 72 h [5]	IC50 at 72 h [6]	pIC50 [7]	pIC50 [8, 12]	IC50 at 72 h [9]	IC50 at 48 h ([1]; K562 erythroleukemic cells)	IC50 at 72 h ([3]; HCT-116 colon carcinoma cells)	IC50 at 72 h ([4]; HeLa cervical epithelium cells)	IC50 at 72 h ([5]; A-549 lung carcinoma cells)	IC50 at 72 h [6, 13]	pIC50 ([7]; in vitro)	pIC50 [8, 14]	IC50 at 72 h ([9]; MCF-7 breast cancer cells)	CC50 at 48 h [10, 15]	further results
COc1cc(O)c2c(c1Cl)/C=C/C[C@H](O)[C@H](O)[C@@H](O)CCC[C@H](C)OC2=O [Compound 2, cochliomycin C]	> 10 µM	I	> 10 µM	> 10 µM	> 10 µM	> 10 µM	< 4.80	< 4.51	> 10 µM	–	–	–	–	–	–	–	–	–	–
CCC(=O)Oc1cc(OC)cc2c1C(=O)O[C@@H](C)C/C=C/[C@H](OC(=O)CC)[C@@H](OC(=O)CC)[C@@H](OC(=O)CC)C/C=C/2 [Compound 14]	–	I	–	–	–	–	–	–	–	> 10 µM	> 10 µM	> 10 µM	> 10 µM	> 10 µM	< 4.80	< 4.51	> 10 µM	–	–
COc1cc(OC(C)=O)c2c(c1Cl)/C=C/C[C@H](OC(C)=O)[C@H](OC(C)=O)[C@@H](OC(C)=O)CCC[C@H](C)OC2=O [Compound 19]	> 10 µM	I	> 10 µM	> 10 µM	> 10 µM	> 10 µM	< 4.80	< 4.51	> 10 µM	–	–	–	–	–	–	–	–	–	–
COc1cc(O)c2c(c1)/C=C/C[C@H](O)[C@H](O)[C@@H](O)CCC[C@H](C)OC2=O [Compound 10]	> 10 µM	I	> 10 µM	> 10 µM	> 10 µM	> 10 µM	< 4.80	< 4.51	> 10 µM	–	–	–	–	–	–	–	–	–	CC50 at 48 h [10]: 274 µM
COc1cc(O)c2c(c1Cl)/C=C/C[C@H](O)[C@H](O)[C@@H](O)/C=C/C[C@H](C)OC2=O [Compound 16]	–	I	–	–	–	–	–	–	–	> 10 µM	> 10 µM	> 10 µM	> 10 µM	> 10 µM	< 4.80	< 4.51	> 10 µM	260 µM	–
CCN(CC)CCCC(C)Nc1ccnc2cc(Cl)ccc12 (stereo not shown) [chloroquine, reference compound]	–	–	–	–	–	–	–	–	–	–	–	–	–	–	–	–	–	–	pIC50 ([8]; Erythrocyte, read-out: IC50 of positive control, antiplasmodial assay): 7.48
COc1cc(O)c2c(c1)/C=C/C[C@H](O)[C@H](O)[C@@H](O)/C=C/C[C@H](C)OC2=O [Compound 8, zeaenol]	> 10 µM	I	> 10 µM	> 10 µM	> 10 µM	> 10 µM	< 4.80	< 4.51	> 10 µM	–	–	–	–	–	–	–	–	–	CC50 at 48 h [10]: 227 µM; IC50 at 72 h [11]: > 10 µM
COc1cc(O)c2c(c1)/C=C/C[C@H](O)[C@@H](O)C(=O)/C=C/C[C@H](C)OC2=O [Compound 4]	–	I	–	–	–	–	–	–	–	> 10 µM	> 10 µM	> 10 µM	> 10 µM	> 10 µM	4.82	< 4.51	> 10 µM	–	–
COc1cc2c(c(OC(C)=O)c1)C(=O)O[C@@H](C)C/C=C/C(=O)[C@@H](OC(C)=O)[C@H](OC(C)=O)C/C=C/2 [Compound 24]	–	–	–	–	–	–	–	–	–	–	> 10 µM	> 10 µM	> 10 µM	–	4.92	< 4.51	–	3.2 µM	IC50 at 72 h ([11]; HUVEC (umbilical vein endothelial cells)): > 10 µM
COc1cc(O)c2c(c1)/C=C/C[C@H](O)[C@@H]1OC(C)(C)O[C@H]1/C=C/C[C@H](C)OC2=O [Compound 1, cochliomycin A]	–	I	–	–	–	–	–	–	–	> 10 µM	> 10 µM	> 10 µM	> 10 µM	> 10 µM	< 4.80	4.51	> 10 µM	96 µM	–
